The values that follow come from patent publication US20140017204A1, “Transfection of Mesothelium Body Cavity Lining with Gene Agents Followed by Chemotharapy to Treat Cancer of Organs in the Body Cavity” (WKD Holding Oy, priority 2012, published 2014).

One test has as its system SKOV-3m cells. The experiment in a line: intraperitoneal ovarian cancer xenograft model in mice. To be noted: for mean survival: control group 15±1 days. It counts as in vivo, Balb/cA-nu female nude mice.
Test [1] relates to malignant pleural mesothelioma. To be noted: in vivo; cited from earlier work.
The next test has as its system murine tumor. The experiment in a line: murine tumor volume: gemcitabine and interferon beta gene therapy vector (FIG. 21). It is filed as in vivo. To be noted: after 40 days; placebo about 1400.

Method for SKOV-3m cells: Gene therapy was also combined with chemotherapy. Therapy was initiated when sizable tumors were confirmed in magnetic resonance imaging (MRI). Adenovirus-mediated gene transfer was performed intravenously (2×10^9 pfu), while chemotherapy and monoclonal anti-VEGF-antibody were dosed intraperitoneally. […] Effectiveness was assessed by survival time and surrogate measures such as sequential MRI, immunohistochemistry, microvessel density and tumor growth.
Cells were cultured in McCoy's 5A medium (Gibco, Invitrogen, Life Technologies). Cancer cells were tested to be mycoplasma free. Before in vivo inoculation, the cells were trypsinized and counted.
Chemotherapy and anti-VEGF-antibody: Carboplatin 10 mg/ml infusion concentrate was used at a dose of 80 mg/kg for the primary treatment of Balb/cA-nu mice. The dose per Balb/cA-nu was 1.6 mg/500 μl NaCl 0.9%. Paclitaxel 6 mg/ml concentrate was used at a dose of 20 mg/kg. The dose per nude mouse was 320 μg/500 μl NaCl 0.9%. […] It was injected every fifth day.
Viral vectors: Adenoviral vectors encoding sVEGFR-1-IgG fusion protein, sVEGFR-2-IgG fusion protein, sVEGFR-3-IgG fusion protein and LacZ (AdLacZ) as a control vector were used for the study.
Animal model: Eight to 10-weeks-old (n ¼ 80) Balb/cA-nu female nude mice were used for the studies. Ovarian carcinoma was produced by inoculating 1×10^7 SKOV-3m cells into the peritoneal cavity of nude mice with a 22 G needle. Development of the ovarian cancerous tumors was followed by sequential MRI. When the first solid, measurable tumor was detected in MRI, gene transfer or other treatment was started on the following day. Mice were randomly divided into six groups:
Tumors developed within 3 weeks after the inoculation of the tumor cells. The presence of all tumors was verified by MRI (magnetic resonance imaging) before starting the therapy. Tumors were observed weekly until the death of the mice. Plasma samples were collected 6, 13, 20 and 27 days after the treatment. Gene transfer was performed intravenously (i.v.) via tail vein in the final volume of 200 ll in 0.9% saline.
MRI was done weekly after gene transfer or treatment, and tumor volumes were measured. The overall follow-up time lasted until the appearance of significant symptoms necessitating sacrifice or to the death. At the time of death, all tumor tissue, liver, spleen, kidneys and lungs were harvested, and tumor masses were weighed. Ascites fluid was collected in a syringe. The mice were kept in a pathogen-free isolated unit at the National Experimental Animal Center of the University of Eastern Finland. Food, water and sawdust bedding were autoclaved, and the mice received chow and water ad libitum.
Photographs of histological sections were taken and processed using an Olympus AX70 microscope (Olympus Optical, Japan) and analySIS (Soft Imaging System, GmbH, Germany) and PhotoShop (Adobe) softwares. Microvessel density (MVD) and total microvascular area (%) of the tumors (TVA) were measured from CD34-immunostained sections using analySIS software at 100× magnification in a blinded manner (FIG. 36). Six to 10 different fields, which represented maximum MVD areas, were selected from each tumor. Necrotic areas were avoided. In addition, the total number of LYVE-1-positive lymphatic vessels per section was counted. Mean 6 SEM of the measurements are reported. […]
From the text for murine tumor: FIG. 21 is a chart comparing murine tumor volume of control; gemcitabine (administered day=0); interferon beta gene therapy vector (administered day=0); and interferon beta gene therapy vector (day=0) followed by gemcitabine (day=3).

With `N.N.O=C([O-])C1(C(=O)[O-])CCC1.[Pt+2]` [carboplatin], in the test with SKOV-3m cells, the mean survival came to 13 ± 1 days.
As for `N.N.[Cl][Pt][Cl]` [cisplatin], the median survival time in test [1] is on record as 9 months.
`Nc1ccn([C@@H]2O[C@H](CO)[C@@H](O)C2(F)F)c(=O)n1` [gemcitabine]: the average tumor size with murine tumor turned out to be 1200 mm^3.
On to `CC(=O)O[C@H]1C(=O)[C@@]2(C)[C@H]([C@H](OC(=O)c3ccccc3)[C@]3(O)C[C@H](OC(=O)[C@H](O)[C@@H](NC(=O)c4ccccc4)c4ccccc4)C(C)=C1C3(C)C)[C@]1(OC(C)=O)CO[C@@H]1C[C@@H]2O` [paclitaxel], for which the mean survival with SKOV-3m cells stood at 15 ± 1 days.
Take bevacizumab: in the test with SKOV-3m cells (mouse, in vivo), the “effect on angiogenesis by micro-vessel measurements” value is given as “did not have any effect”; the “effect on survival, tumor volume or mean tumor weight” value was “did not have any significant effect”; the “effect on the survival” value is listed as “did not have any significant effect”.
